A short description of this data set: In vivo pharmacokinetic analysis. Conditions: mouse, i.p. 25 mg/kg. As for the experimental part: FIGURE 8 (A) In vivo pharmacokinetic (PK) analysis of compound 2 (mean±sem, n = 2 per time point). (B) Body weight throughout the 7‐week treatment. Mice of the indicated genotypes (mean±sem, n = 2) were treated with compound 2 or vehicle, starting at 6 weeks of age. (C) Progerin and H3K9Me3 levels in lung and liver, respectively, of mice treated for 7 weeks. Representative cropped immunoblots are shown. MW, molecular weight (in kDa) markers. […] TEXT PRINTED IN THE PICTURE: (A) no label printed: VD (L·Kg^-1): 11± 5 (Dose (D) (mg·Kg^-1): 25); Ke (h^-1): 0.9± 0.1 (Dose (D) (mg·Kg^-1): 25); t1/2 (h): […] (Dose (D) (mg·Kg^-1): 25); AUC (mg·h·L^-1): 3±1 (Dose (D) (mg·Kg^-1): 25); CL (L·Kg^-1·h^-1): 10±5 (Dose (D) (mg·Kg^-1): 25) DOUBTS OF THE COPYIST ABOUT THIS PICTURE: Panel A: the picture prints no substance label beside the pharmacokinetic table, so the label is left empty. "Cpd 2" is printed only in panel B. […]
All scientific procedures with animals were conformed to EU Directive 2010/63 EU and Recommendation 2007/526/EC, enforced in Spanish law under Real Decreto 53/2013.
Animal protocols were approved by the Committee of Animal Experimentation of Universidad Complutense de Madrid and the Animal Protection Area of the Comunidad Autónoma de Madrid (PROEX 114.4/24). Animal studies were carried out in LmnaG609G/G609G knock-in mice ubiquitously expressing progerin[19] and control Lmna+/+ littermates, obtained by breeding LmnaG609G/+ mice kindly donated by Prof. V. Andrés (CNIC, Spain). Mice were maintained in the animal facility of the Universidad Complutense de Madrid under specific pathogen free conditions.
For pharmacokinetic studies, compound 2 was administered intraperitoneally and blood was collected at the selected time points post-dose (n=2-3 per time point) by cardiac puncture. Blood was allowed to clot at room temperature for 30 min and centrifuged at 4 °C for 10 min at 10000g. The supernatant was transferred to a clean polypropylene tube and stored at -80 °C until analysis. For analysis, a volume of cold acetonitrile was added to the serum. The sample was incubated in an ice bath for 10 min and centrifuged at 4 °C for 10 min at 18000g. The resulting organic layer was filtered through a polytetrafluoroethylene filter (0.2 µm, 13 mm diameter, Agilent Technologies) and 30 µL of the sample analyzed by liquid chromatography coupled to mass spectrometry multiple reaction monitoring at the UCM’s Mass Spectrometry CAI. Separation was performed using a Phenomenex Gemini 5 µm C18 110Å 150x2 mm column (run time 9 min; flow 0.7 mL/min; gradient: 0 min 5% B; 4-7 min 100% B; 7.5 min 5% B; Phase A: water with formic acid 0.1%; Phase B: acetonitrile). […]
UHPLC with an oven temperature of 31.5 °C. The mass spectrometer ion optics were set in the multiple reaction monitoring mode and the transition selected for quantification […]
For in vivo treatment, compound 2 was administrated at a concentration of 25 mg/kg diluted in sterile corn oil (Sigma-Aldrich) intraperitoneally three times per week starting at the age of 6 weeks. The same quantity of corn oil was injected to control […]
After 7 weeks of treatment, mice were euthanized by CO2 inhalation. […] For immunoblot analysis, a portion of the corresponding tissue was homogenized, and the protein concentration was determined. Samples containing equivalent amounts of total protein were then subjected to polyacrylamide gel electrophoresis and analyzed as […]

What is called AUC is the area under the concentration-time curve, a measure of exposure. The low end stands for low exposure, the high end for high exposure.

On to `CC1(C)Oc2cc3oc(=O)ccc3cc2C[C@@H]1OC(=O)CCCCCNc1cccc2c1C(=O)N(C1CCC(=O)NC1=O)C2=O` (some centres unmarked) [compound 2], for which the signs of toxicity entry was “no evident signs of toxicity”. Where the note is “ip, serum, 1 h, read-out: levels of the compound 1 h after administration”, the concentration at 1 h was around 1500 ng/mL. For the same compound, under “serum, ip, 25 mg/kg, read-out: t1/2 (half‐life) (converted)”, the half-life was around 2 h. Under “serum, ip”, this compound gave an AUC of 3000 ± 1000 ng·h/mL. Further, the k el (serum, ip, read-out: Ke (converted)) is 0.00025 s⁻¹.

(Values after PMC13252604, “First Generation Proteolysis Targeting Chimeras (PROTACs) for the Treatment of Progeria” (Advanced Science, 2026).)
